Patent publication US6741954B2, “Selection method for odorants” (Symrise GmbH & Co. KG, priority 2000, dated 2004)
Where two headings read alike, the source gives them in different places.

How the values were obtained:
Assay type in all cases: physicochemical
[1] = Headspace above the wet washed hair: relative partition parameter headspace/shampoo (SPME-GC)
Description: (§1) The procedure is analogous in all examples.
The example reflects the scent impression, which is perceived from freshly washed hair. The shampoo is prepared as is generally customary. The mixture of 39 odorants is incorporated into the above-mentioned shampoo (1st) in an amount of 1%. A hair tress (2.5 g) is washed in 100 ml of a 20% shampoo solution in water by immersing 5-10 times and stirring, and then rinsed in 100 ml of clear water by immersing it three times. The hair tress is carefully patted with thin cellulose. The moist hair tress is transferred to a 100 ml Erlenmeyer flask sealed with a septum and left to stand for 3 h. The headspace above the washed and rinsed hair tress is extracted over 15 min using solid phase microextraction (SPME). The SPME needle is desorbed in a GC injector, and a gas chromatogram is recorded. […] The analytical results are then used mathematically as described above.

[2] = Headspace above the shampoo: relative partition parameter (SPME-GC); settings: log of amount in headspace relative to amount in shampoo; 1% odorant mixture, SPME 15 min
Description: as §1
The example reflects the scent impression, which is perceived from a freshly opened bottle of shampoo. The mixture of 39 odorants is incorporated into the above-mentioned shampoo (1) in an amount of 1%. 20 g of the shampoo are transferred to a 100 ml Erlenmeyer flask sealed with a septum. The headspace above the shampoo is extracted using a SPME over 15 min. […] The analytical results are then used mathematically as described above.

[3] = Headspace above the soap bar: relative partition parameter (SPME-GC)
Description: as §1
The example reflects the scent impression, which is perceived from a fresh bar of soap. […] 20 g of the grated soap are transferred to a 100 ml Erlenmeyer flask sealed with a septum. The headspace above the shampoo is extracted using a SPME over 15 min. […] The analytical results are then used mathematically as described above.

[4] = Headspace above the washing powder: relative partition parameter (SPME-GC)
Description: as §1
The example reflects the scent impression, which is perceived from a freshly opened pack of laundry detergent. The mixture of 39 odorants is incorporated in the above-mentioned washing powder in an amount of 0.5%. 20 g of the washing powder are transferred to a 100 ml Erlenmeyer flask sealed with a septum. The headspace above the shampoo is extracted using a SPME over 15 min. […] The analytical results are then used mathematically as described above.

[5] = Headspace above the candle wax: relative partition parameter (SPME-GC); settings: log of amount in headspace relative to amount in candle wax; 5% odorant mixture, grated nonburning candle, SPME 15 min
Description: as §1
The example reflects the scent impression, which is perceived from a nonburning candle. The mixture of 39 odorants is incorporated into a candle in an amount of 5%. 20 g of the grated candle are transferred to a 100 ml Erlenmeyer flask sealed with a septum. The headspace above the candle is extracted using a SPME over 15 min. […] The analytical results are then used mathematically as described above.

[6] = Headspace above the fresh gel room air freshener: relative partition parameter (SPME-GC); settings: log of amount in headspace relative to amount in gel; 5% odorant mixture, 10 liter vessel, 1 h, SPME 15 min
Description: as §1
The example reflects the scent impression, which is perceived above a fresh gel room air freshener. The mixture of 39 odorants is incorporated into an air freshener in an amount of 5%. 100 g of the air freshener are placed in its customary presentation form in a large sealed 10 liter vessel. The air freshener is left to stand for one hour. The headspace above the air freshener is extracted using a SPME over 15 min. […] The analytical results are then used mathematically as described above.

[7] = Headspace above the solution of WC scented block cleaner: relative partition parameter (SPME-GC); settings: log of amount in headspace above 1% solution in water relative to amount in WC block; 1% odorant mixture, SPME 15 min
Description: as §1
The example reflects the scent impression, which is perceived from a WC scented block cleaner. The mixture of 39 odorants is incorporated into the toilet block in an amount of 1%. A 1% solution of the toilet block in water is prepared. 20 ml of this solution are transferred to a 100 ml Erlenmeyer flask sealed with a septum. The headspace above the shampoo is extracted by means of a SPME over 15 min. […] The analytical results are then used mathematically as described above.

[8] = log of amount in headspace above wet washed hair relative to amount in shampoo, 1% odorant mixture, 3 h standing, SPME 15 min
[9] = log of amount in headspace relative to amount in soap, 1.2% odorant mixture, grated soap, SPME 15 min
[10] = log of amount in headspace relative to amount in washing powder, 0.5% odorant mixture, SPME 15 min

Row | Activity (logarithmic partition parameter above wet hair) [1, 8] | Activity (logarithmic partition parameter above shampoo) [2] | Activity (logarithmic partition parameter above soap) [3, 9] | Activity (logarithmic partition parameter above washing powder) [4, 10] | Activity (logarithmic partition parameter above candle wax) [5] | Activity (logarithmic partition parameter above gel room air fresheners) [6] | Activity (logarithmic partition parameter above dissolved WC scented block cleaners) [7] | SMILES | Activity (logarithmic partition parameter above wet hair) [1] | Activity (logarithmic partition parameter above soap) [3] | Activity (logarithmic partition parameter above washing powder) [4]
1 | −0.741 | −0.026 | 0.147 | 0.061 | −0.588 | 0.392 | −0.434 | CC(=O)O[C@@H]1C[C@H]2CC[C@]1(C)C2(C)C (racemic) [Isobornyl acetate] | – | – | –
2 | −1.006 | −0.293 | 0.538 | 0.224 | −0.244 | 0.594 | −1.552 | CC(=O)OCc1ccccc1 [Benzyl acetate] | – | – | –
3 | −1.867 | −0.759 | −0.088 | −0.389 | −0.364 | 0.148 | – | OCc1ccccc1 [Benzyl alcohol] | – | – | –
4 | – | – | – | −2.349 | – | – | −3.166 | O=C(OCc1ccccc1)c1ccccc1O [Benzyl salicylate] | – | – | –
5 | −0.721 | 0.777 | 0.392 | 0.357 | 0.783 | −0.116 | −1.348 | C=C1C2CCC(C2)C1(C)C (stereo not drawn) [Camphene] | – | – | –
6 | −2.475 | – | −2.090 | −1.547 | – | −1.761 | −1.348 | C[C@@H]1CC[C@H]2C(C)(C)[C@H]3C[C@@]12CC[C@@]3(C)O [Cedrol] | – | – | –
7 | −1.818 | −1.406 | −0.787 | −0.780 | −1.159 | −0.158 | −1.575 | CC(C)=CCCC(C)CCO (stereo not drawn) [Citronellol] | – | – | –
8 | −1.127 | −0.513 | 0.059 | −0.041 | −0.856 | 0.125 | −0.992 | CC(=O)OC(C)(C)Cc1ccccc1 [DMBCA, dimethylbenzylcarbinyl acetate] | – | – | –
9 | −1.056 | −0.287 | 0.076 | 0.184 | −0.324 | 0.460 | −1.131 | C=CC(C)CCCC(C)(C)O (stereo not drawn) [Dihydromyrcenol] | – | – | –
10 | −2.257 | – | −1.435 | −1.440 | −0.822 | −0.653 | −2.412 | C=CCc1ccc(O)c(OC)c1 [Eugenol] | – | – | –
11 | −2.043 | −1.839 | −0.952 | −0.976 | −1.273 | −0.365 | −2.045 | CC(C)=CCC/C(C)=C/CO [Geraniol] | – | – | –
12 | −2.690 | – | −2.176 | −1.559 | – | – | −1.413 | CCCCCC/C(C=O)=C\c1ccccc1 [Hexylcinnamaldehyde, alpha] | – | – | –
13 | −2.381 | – | −1.804 | −1.609 | −1.869 | −1.161 | – | CC(CC=O)CCCC(C)(C)O (stereo not drawn) [Hydroxycitronellal] | – | – | –
14 | −1.559 | −1.157 | −0.701 | −0.697 | −1.441 | −0.515 | −1.152 | CC(=O)/C=C/C1C(C)=CCCC1(C)C (stereo not drawn) [Ionone, alpha] | – | – | –
15 | −1.636 | −1.282 | −0.837 | −0.778 | −1.606 | −0.662 | −0.819 | CC(=O)/C=C/C1=C(C)CCCC1(C)C [Ionone, beta] | – | – | –
16 | −1.612 | −1.716 | −1.190 | −1.467 | – | −1.544 | −0.870 | CC(C)CCOC(=O)c1ccccc1O [Isoamyl salicylate] | – | – | –
17 | −0.183 | 0.965 | 0.748 | – | – | 0.062 | −1.102 | C=C(C)[C@H]1CC=C(C)CC1 [Limonene D] | – | – | –

Row | SMILES | Activity (logarithmic partition parameter above wet hair) [1, 8] | Activity (logarithmic partition parameter above shampoo) [2] | Activity (logarithmic partition parameter above soap) [3, 9] | Activity (logarithmic partition parameter above washing powder) [4, 10] | Activity (logarithmic partition parameter above candle wax) [5] | Activity (logarithmic partition parameter above gel room air fresheners) [6] | Activity (logarithmic partition parameter above dissolved WC scented block cleaners) [7] | Activity (logarithmic partition parameter above wet hair) [1] | Activity (logarithmic partition parameter above soap) [3] | Activity (logarithmic partition parameter above washing powder) [4]
18 | CC(=O)O[C@]1(C)CC[C@@]23C[C@@H]1C(C)(C)[C@@H]2CC[C@H]3C [Cedryl acetate] | – | – | – | – | – | −2.566 | −1.161 | −2.685 | −2.483 | −1.971
19 | CCOC(=O)c1ccccc1C(=O)OCC [Diethyl phthalate] | – | – | −1.742 | −2.124 | −2.459 | −2.303 | – | – | – | –
